In PMC12635268, “Novel antimicrobial peptides and peptide-microbiome crosstalk in Appalachian salamander skin” (NPJ Biofilms and Microbiomes, 2025):
Ends that are not written are not given here.

Assays:
[1] = tested on: P. aeruginosa ATCC 27853; experiment: microbe, parasite or virus in culture; settings: ATCC 27853, 20 h
Procedure: (§1) Antimicrobial susceptibility testing of the 20 synthesized peptides against 17 bacterial strains of clinical relevance in the ESKAPEE panel was conducted using minimum inhibitory concentration (MIC) assays following the broth microdilution method outlined by Parker et al.[91]. The ESKAPEE panel is comprised of fourteen American Type Culture Collection (ATCC) strains and three Multidrug Resistant Organism Repository and Surveillance Network (MRSN) bacterial strains. These strains represent at least one drug-susceptible strain and one drug-resistant strain for each bacterium to assess drug efficacy across various resistance mechanisms. This panel is comprised of the following bacterial species and strains: E. faecium (ATCC 19434, ATCC 49224), S. aureus (ATCC 25923, ATCC 43300), K. pneumoniae (ATCC 700603, ATCC 13883, MRSN 1320), A. baumannii (ATCC 17978, ATCC 19606, MRSN 959), P. aeruginosa (ATCC 15692, ATCC 27853, MRSN 5519), E. cloacae (ATCC 13047, ATCC 35549), and E. coli (ATCC 35218, ATCC 43888). Bacteria were grown in cation-adjusted Mueller-Hinton broth (CAMHB) to achieve a final inoculum of 1 × 10⁵ CFU/mL. CAMHB is selected for its batch-to-batch reproducibility, low levels of antimicrobial inhibitors, and ability to support the growth of most bacterial pathogens.
(§2) Briefly, lyophilized peptides were dissolved in 0.2% TFA + 0.4% BSA in water to 2.56 mg/mL, ultrasonicated for 20 min, diluted 10-fold into CAMHB, and then serially diluted 2-fold in 0.02% TFA + 0.04% BSA in CAMHB and assayed at a concentration of 0.25 to 128 μg/mL. Assays were set up using the Tecan Freedom EVO liquid handling robot and software (Tecan, Switzerland) with 50 μL of bacterial inoculum and 50 μL of peptide transferred into round-bottom 96-well microtiter plates. Each plate assay was performed in duplicate and incubated at 37 °C for 20 h without agitation. Bacterial growth was assessed using the BIOMIC V3 Image Analysis system (Giles Scientific, USA) and the MIC values were determined visually according to the Clinical and Laboratory Standards Institute (CLSI) guidelines.

[2] = tested on: E. faecium ATCC 49224; experiment: microbe, parasite or virus in culture; settings: ATCC 49224, 20 h
Procedure: as §1, §2

[3] = tested on: E. cloacae ATCC 13047; experiment: microbe, parasite or virus in culture; settings: ATCC 13047, 20 h
Procedure: as §1, §2

[4] = tested on: E. coli ATCC 43888; experiment: microbe, parasite or virus in culture; settings: ATCC 43888, 20 h
Procedure: as §1, §2

[5] = tested on: E. coli ATCC 35218; experiment: microbe, parasite or virus in culture; settings: E. coli 35218; Week 2 (12/14/2023)
Procedure: as §1, §2

[6] = tested on: S. aureus ATCC 43300; experiment: microbe, parasite or virus in culture; settings: S. aureus 43300; Week 2 (12/14/2023)
Procedure: as §1, §2

[7] = tested on: P. aeruginosa MRSN 5519; experiment: microbe, parasite or virus in culture; settings: MRSN 5519, 20 h
Procedure: as §1, §2

[8] = tested on: A. baumannii ATCC 19606; experiment: microbe, parasite or virus in culture; settings: ATCC 19606, 20 h
Procedure: as §1, §2

[9] = tested on: E. cloacae ATCC 35549; experiment: microbe, parasite or virus in culture; settings: ATCC 35549, 20 h
Procedure: as §1, §2

[10] = tested on: E. faecium ATCC 19434; experiment: microbe, parasite or virus in culture; settings: ATCC 19434, 20 h
Procedure: as §1, §2

[11] = tested on: A. baumannii ATCC 17978; experiment: microbe, parasite or virus in culture; settings: ATCC 17978, 20 h
Procedure: as §1, §2

[12] = tested on: K. pneumoniae ATCC 700603; experiment: microbe, parasite or virus in culture; settings: K. pneumoniae 700603; Week 2 (12/14/2023)
Procedure: as §1, §2

[13] = tested on: K. pneumoniae ATCC 13883; experiment: microbe, parasite or virus in culture; settings: ATCC 13883, 20 h
Procedure: as §1, §2

[14] = tested on: S. aureus ATCC 25923; experiment: microbe, parasite or virus in culture; settings: ATCC 25923, 20 h
Procedure: as §1, §2

[15] = tested on: P. aeruginosa PA01 (Si); experiment: microbe, parasite or virus in culture; format: cell-based; settings: Si
Excerpt: Supplement 41522_2025_837_MOESM13_ESM.xlsx, sheet "Table_S13_ESKAPEE-MIC" | column: Bacterial MIC (µg/mL)

[16] = tested on: K. pneumoniae 4640; settings: 4640, 20 h
[17] = tested on: A. baumannii 5075; settings: Week 2 (12/14/2023)
[18] = tested on: P. aeruginosa PA01; experiment: microbe, parasite or virus in culture; format: cell-based; settings: P. aeruginosa 15692 (PAO1); Week 2 (12/14/2023)
Procedure: as §1, §2

[19] = set-up: method as in Biomatik (vendor); settings: 1.0 mg peptide in 1.0 ml solvent; peptides synthesized by Biomatik; ref Biomatik (vendor); cited from earlier work

Row | Sequence | Bacterial MIC [1] [µg/mL] | Bacterial MIC [2] [µg/mL] | Bacterial MIC [3] [µg/mL] | Bacterial MIC [4] [µg/mL] | Bacterial MIC [5] [µg/mL] | Bacterial MIC [6] [µg/mL] | Bacterial MIC [7] [µg/mL] | Bacterial MIC [8] [µg/mL] | Bacterial MIC [9] [µg/mL] | Bacterial MIC [10] [µg/mL] | Bacterial MIC [11] [µg/mL] | Bacterial MIC [12] [µg/mL] | Bacterial MIC [13] [µg/mL] | Bacterial MIC [14] [µg/mL] | Bacterial MIC [15] [µg/mL] | Bacterial MIC [16] [µg/mL] | Bacterial MIC [17] [µg/mL] | Bacterial MIC [18] [µg/mL] | Suggest solvent (solubility) [19]
1 | DVGTQGLSPLR [PrAd-Eb22] | >128.000 | >128.000 | >128.000 | >128.000 | >128.000 | >128.000 | >128.000 | >128.000 | >128.000 | >128.000 | >128.000 | >128.000 | >128.000 | >128.000 | >128.000 | >128.000 | >128.000 | >128.000 | 1.0mg peptide soluble in 1.0ml H2O
2 | KEGCKEIKGP [TrPr-Eb20] | >128.000 | >128.000 | >128.000 | >128.000 | >128.000 | >128.000 | >128.000 | >128.000 | >128.000 | >128.000 | >128.000 | >128.000 | >128.000 | >128.000 | >128.000 | >128.000 | >128.000 | >128.000 | 1.0mg peptide soluble in 1.0ml H2O
